# In patent US4521537A, “Spiro[2H-1,4-benzodioxepin-3(5H)4'-piperidine and -3'-pyrrolidine] compounds and their use as antihypertensive agents” (Hoechst-Roussel Pharmaceuticals Incorporated, priority 1984, dated 1985):
# Structures can show the parent of a compound that is named as a salt.
# Tested on: spontaneous hypertensive rat
# Assay: antihypertensive activity, spontaneous hypertensive rat (SHR) test, indirect tail cuff method
# Type: in vivo
# Experimental: Compounds of this invention are useful as antihypertensive agents due to their ability to depress blood pressure in mammals. Antihypertensive activity is measured in the spontaneous hypertensive rat by the indirect tail cuff method described by A. Schwartz, Ed., Methods in Pharmacology, Vol. page 135, Appleton Century Crafts, New York (1971). […] The drop in blood pressure is measured on the third day following administration. The antihypertensive activity is expressed as mm Hg decrease in mean arterial blood pressure.
# [1] = Table I, 50 mg/kg PO, three days
# [2] = Table I, 3 mg/kg PO, three days
# [3] = Table I, 10 mg/kg PO, three days
Compound,SHR mm Hg (decrease in mean arterial blood pressure) [1] [mm Hg],further results
"CC1Oc2ccccc2COC12CCN(CCCC1(c3ccc(F)cc3)OCCO1)CC2 (centres unmarked) [Example 9, 2-Methyl-1'-[3-[2-(4-fluorophenyl)-1,3-dioxolan-2yl]propyl]spiro[2H-1,4-benzodioxepin-3(5H)4'-piperidine]maleate]",-34,
"CC1Oc2ccc(Cl)cc2COC12CCN(CCCC(c1ccccc1)c1ccccc1)CC2 (centres unmarked) [Example 17, 1'-[4,4-Diphenylbutyl]-7-chloro-2-methylspiro[2H-1,4-benzodioxepin-3(5H)4'-piperidine]oxalate]",-84,SHR mm Hg (decrease in mean arterial blood pressure) [2]: -23 mm Hg
"CC1Oc2ccc([N+](=O)[O-])cc2COC12CCN(CCCC(c1ccc(F)cc1)c1ccc(F)cc1)CC2 (centres unmarked) [Example 83, 1'-[4,4-Bis(4-fluorophenyl)butyl]-2-methyl-7-nitrospiro[2H-1,4-benzodioxepin-3(5H)4'-piperidine]hydrochloride]",,"SHR mm Hg (decrease in mean arterial blood pressure) (Table III, 3 mg/kg PO): -65 mm Hg"
"CC1Oc2ccccc2COC12CCN(CCCC(c1ccc(Cl)cc1)c1ccc(Cl)cc1)CC2 (centres unmarked) [Example 15, 1'-[4,4-Bis(4-chlorophenyl)butyl]-2-methylspiro[2H-1,4-benzodioxepin-3(5H)4'-piperidine]oxalate]",-27,
"CC1Oc2ccc(Cl)cc2COC12CCN(CCCC(C1CCCCC1)C1CCCCC1)CC2 (centres unmarked) [Example 87, 1'-(4,4-Dicyclohexylbutyl)-7-chloro-2-methylspiro[2H-1,4-benzodioxepin-3(5H)4'-piperidine]hydrochloride]",,"SHR mm Hg (decrease in mean arterial blood pressure) (Table III, 50 mg/kg PO): -69 mm Hg"
"CC1Oc2ccccc2COC12CCN(CCCC(c1ccc(F)cc1)c1ccc(F)cc1)CC2 (centres unmarked) [Example 8, 1'-[4,4-Bis-(4-fluorophenyl)butyl]-2-methylspiro[2H-1,4-benzodioxepin-3(5H)4'-piperidine]oxalate]",-102,
"CC1Oc2ccccc2COC12CCN(CCCC(O)c1ccc(F)cc1)CC2 (centres unmarked) [Example 23, 1'-[4-Hydroxy-4-(4-fluorophenyl)butyl]-2-methylspiro[2H-1,4-benzodioxepin-3(5H)4'-piperidine]]",,SHR mm Hg (decrease in mean arterial blood pressure) [3]: -31 mm Hg
"CC1Oc2ccc(F)cc2COC12CCN(CCCC(c1ccc(F)cc1)c1ccc(F)cc1)CC2 (centres unmarked) [Example 42, 1'-[4,4-Bis(4-fluorophenyl)butyl]-7-fluoro-2-methylspiro[2H-1,4-benzodioxepin-3(5H)4'-piperidine]hydrochloride]",-126,
"CC1Oc2ccc(F)cc2COC12CCN(CCCC(c1ccccc1)c1ccccc1)CC2 (centres unmarked) [Example 41, 1'-(4,4-Diphenylbutyl)-7-fluoro-2-methylspiro[2H-1,4-benzodioxepin-3(5H)4'-piperidine]hydrochloride]",-34,
"CC1Oc2ccccc2COC12CCN(CCCCc1ccc(F)cc1)CC2 (centres unmarked) [Example 14, 1'-[4-(4-Fluorophenyl)butyl]-2-methylspiro[2H-1,4-benzodioxepin-3(5H)4'-piperidine]hydrochloride]",-34,
"CC1Oc2ccccc2COC12CCN(CCC=C(c1ccc(F)cc1)c1ccc(F)cc1)CC2 (centres unmarked) [Example 10, 1'-[4,4-Bis(4-fluorophenyl)-3-butenyl]-2-methylspiro[2H-1,4-benzodioxepin-3(5H)4'-piperidine]maleate]",-18,
"CC1Oc2ccccc2COC12CCN(CCC=C(c1ccccc1)c1ccccc1)CC2 (centres unmarked) [Example 12, 1'-[4,4-Diphenyl-3-butenyl]-2-methylspiro[2H-1,4-benzodioxepin-3(5H)4'-piperidine]maleate]",-20,
"CC1Oc2ccccc2COC12CCNCC2 (centres unmarked) [Example 36, 2-Methylspiro[2H-1,4-benzodioxepin-3(5H)4'-piperidine]oxalate]",-42,
"C[C@](N)(Cc1ccc(O)c(O)c1)C(=O)O [α-methyl dopa, reference compound]",,"SHR value (similar test, 50 mg/kg PO for five days): -40 mm Hg"
"CC1Oc2ccc(Cl)cc2COC12CCN(CCC(c1ccccc1)c1ccccc1)CC2 (centres unmarked) [Example 20, 7-Chloro-2-methyl-1'-(3,3-diphenylpropyl)spiro[2H-1,4-benzodioxepin-3(5H)4'-piperidine]hydrochloride]",-15,
"CC1Oc2ccc(Cl)cc2COC12CCN(CCC=C(c1ccccc1)c1ccccc1)CC2 (centres unmarked) [Example 16, 1'-[4,4-Diphenyl-3-butenyl]-7-chloro-2-methylspiro[2H-1,4-benzodioxepin-3(5H)4'-piperidine]oxalate]",-47,
"CC1Oc2ccccc2COC12CCN(CCCC(c1ccccc1)c1ccccc1)CC2 (centres unmarked) [Example 11, 1'-(4,4-Diphenylbutyl)-2-methylspiro[2H-1,4-benzodioxepin-3(5H)4'-piperidine]oxalate]",-17,
"CC1Oc2ccc(Cl)cc2COC12CCN(CCCC(c1ccc(F)cc1)c1ccc(F)cc1)CC2 (centres unmarked) [Example 18, 1'-[4,4-Bis(4-fluorophenyl)butyl]-7-chloro-2-methylspiro[2H-1,4-benzodioxepin-3(5H)4'-piperidine]oxalate]",,"SHR mm Hg (decrease in mean arterial blood pressure) (Table I, 0.3 mg/kg PO, three days): -41 mm Hg"
"CC1Oc2ccccc2COC12CCN(CCCC(Oc1ccc(F)cc1)c1ccc(F)cc1)CC2 (centres unmarked) [Example 24, 1'-[4-(4-Fluorophenoxy)-4-(4-fluorophenyl)butyl]-2-methylspiro[2H-1,4-benzodioxepin-3(5H)4'-piperidine]oxalate]",-24,
"CC1Oc2ccc(Br)cc2COC12CCN(CCCC(c1ccc(F)cc1)c1ccc(F)cc1)CC2 (centres unmarked) [Example 21, 7-Bromo-1'-[4,4-bis(4-fluorophenyl)butyl]-2-methylspiro[2H-1,4-benzodioxepin-3(5H)4'-piperidine]oxalate]",,"SHR mm Hg (decrease in mean arterial blood pressure) [2]: -63 mm Hg; SHR mm Hg (decrease in mean arterial blood pressure) (Table I, 5 mg/kg PO, three days): -74 mm Hg"
"CC1Oc2ccc(Cl)cc2COC12CCN(CCC=C(c1ccc(F)cc1)c1ccc(F)cc1)CC2 (centres unmarked) [Example 19, 1'-[4,4-Bis(4-fluorophenyl)-3-butenyl]-7-chloro-2-methylspiro[2H-1,4-benzodioxepin-3(5H)4'-piperidine]oxalate]",,SHR mm Hg (decrease in mean arterial blood pressure) [3]: -43 mm Hg
